Test results taken from ChEMBL document CHEMBL1201862, “PubChem BioAssay data set” (2004).
Calls of active or inactive are those of the source.

Columns and labels:
[1] = Luminescence Cell-Based Dose Confirmation HTS to Identify Activators of 5'UTR Stem-Loop Driven Alpha-Synuclein mRNA Translation in H4 Neuroglioblastoma Cells. [Related pubchem assays: 1829 (Project Summary), 1814 (Primary HTS)]; format: functional
[2] = Luminescence Cell-Based Dose Response HTS to Identify Activators of Luciferase Translation or Activity in H4 […] Cells. [Related pubchem assays: 1829 (Project Summary), 1814 (Primary HTS)]; format: functional
H4 = assay: Luminescence Cell-Based Dose Response HTS to Identify Activators of 5'UTR Stem-Loop Driven Prion Protein mRNA Translation in H4 Neuroglioblastoma Cells. [Related pubchem assays: 1829 (Project Summary), 1814 (Primary HTS)]; format: functional; conditions: Homo sapiens
Caspase-3 = target: T1, Caspase-3 (Homo sapiens, UniProt P42574); format: functional;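 further: Dose-response selectivity test against caspase-3 for candidate inhibitors of sentrin-specific proteases (SENPs)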
T1 sequence (P42574 whole entry): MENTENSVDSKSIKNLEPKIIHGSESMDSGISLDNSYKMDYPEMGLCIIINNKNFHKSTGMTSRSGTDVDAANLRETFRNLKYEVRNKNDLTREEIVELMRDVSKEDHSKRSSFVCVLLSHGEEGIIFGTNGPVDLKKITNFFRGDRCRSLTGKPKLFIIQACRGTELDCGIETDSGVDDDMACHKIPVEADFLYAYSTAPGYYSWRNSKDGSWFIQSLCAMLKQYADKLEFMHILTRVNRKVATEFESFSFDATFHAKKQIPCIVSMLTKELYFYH

[3] = target: T2, Sentrin-specific protease 6 (Homo sapiens, UniProt Q9GZR1); format: functional;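 further: Luminescence-based dose-response confirmatory assay of SENP6 inhibition, following up an ultra-high-throughput screen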
T2 sequence (Q9GZR1 whole entry): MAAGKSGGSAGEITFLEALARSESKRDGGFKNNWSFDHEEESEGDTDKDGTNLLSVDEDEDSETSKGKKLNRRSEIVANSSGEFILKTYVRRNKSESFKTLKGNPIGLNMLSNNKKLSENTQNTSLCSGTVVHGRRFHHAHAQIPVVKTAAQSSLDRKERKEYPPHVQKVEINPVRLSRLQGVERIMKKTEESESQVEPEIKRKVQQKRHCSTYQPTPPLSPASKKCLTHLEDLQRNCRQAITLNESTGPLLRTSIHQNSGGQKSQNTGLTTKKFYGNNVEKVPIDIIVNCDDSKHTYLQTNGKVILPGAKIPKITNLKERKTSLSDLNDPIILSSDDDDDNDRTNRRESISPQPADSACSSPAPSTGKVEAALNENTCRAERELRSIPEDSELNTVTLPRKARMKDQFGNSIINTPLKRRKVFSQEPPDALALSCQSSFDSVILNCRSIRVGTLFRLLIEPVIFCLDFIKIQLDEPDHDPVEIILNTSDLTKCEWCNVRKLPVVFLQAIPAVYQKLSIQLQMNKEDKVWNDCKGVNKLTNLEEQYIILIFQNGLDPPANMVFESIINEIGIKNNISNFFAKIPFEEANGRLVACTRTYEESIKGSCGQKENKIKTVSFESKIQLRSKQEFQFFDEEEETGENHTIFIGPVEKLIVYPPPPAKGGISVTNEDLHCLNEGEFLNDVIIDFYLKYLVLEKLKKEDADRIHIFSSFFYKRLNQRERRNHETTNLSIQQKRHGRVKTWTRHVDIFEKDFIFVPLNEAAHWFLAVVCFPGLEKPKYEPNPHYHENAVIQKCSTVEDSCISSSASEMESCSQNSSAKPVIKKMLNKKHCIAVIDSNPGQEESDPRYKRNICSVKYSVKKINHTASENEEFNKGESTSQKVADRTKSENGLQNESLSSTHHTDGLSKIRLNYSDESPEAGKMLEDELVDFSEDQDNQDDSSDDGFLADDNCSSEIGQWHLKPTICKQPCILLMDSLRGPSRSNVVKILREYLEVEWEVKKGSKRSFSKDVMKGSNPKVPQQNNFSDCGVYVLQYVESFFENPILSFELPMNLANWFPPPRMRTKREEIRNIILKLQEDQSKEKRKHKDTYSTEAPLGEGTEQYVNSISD

[4] = target: T3, Sentrin-specific protease 8 (Homo sapiens, UniProt Q96LD8); format: functional;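 further: luminescence read-out of SENP8 inhibition, dose-response confirmation following an ultra-high-throughput screen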
T3 sequence (Q96LD8 whole entry): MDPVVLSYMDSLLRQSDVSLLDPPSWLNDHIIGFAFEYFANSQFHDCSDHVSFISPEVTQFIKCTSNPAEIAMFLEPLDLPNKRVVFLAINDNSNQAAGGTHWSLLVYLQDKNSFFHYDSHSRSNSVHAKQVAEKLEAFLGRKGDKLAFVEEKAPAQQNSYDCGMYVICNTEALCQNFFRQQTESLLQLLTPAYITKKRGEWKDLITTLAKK

[5] = target: T4, Sentrin-specific protease 7 (Homo sapiens, UniProt Q9BQF6); format: functional;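 further: Luminescence-based dose-response confirmation of ultra-high-throughput screening hits, measuring inhibition of SENP7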
T4 sequence (Q9BQF6 whole entry): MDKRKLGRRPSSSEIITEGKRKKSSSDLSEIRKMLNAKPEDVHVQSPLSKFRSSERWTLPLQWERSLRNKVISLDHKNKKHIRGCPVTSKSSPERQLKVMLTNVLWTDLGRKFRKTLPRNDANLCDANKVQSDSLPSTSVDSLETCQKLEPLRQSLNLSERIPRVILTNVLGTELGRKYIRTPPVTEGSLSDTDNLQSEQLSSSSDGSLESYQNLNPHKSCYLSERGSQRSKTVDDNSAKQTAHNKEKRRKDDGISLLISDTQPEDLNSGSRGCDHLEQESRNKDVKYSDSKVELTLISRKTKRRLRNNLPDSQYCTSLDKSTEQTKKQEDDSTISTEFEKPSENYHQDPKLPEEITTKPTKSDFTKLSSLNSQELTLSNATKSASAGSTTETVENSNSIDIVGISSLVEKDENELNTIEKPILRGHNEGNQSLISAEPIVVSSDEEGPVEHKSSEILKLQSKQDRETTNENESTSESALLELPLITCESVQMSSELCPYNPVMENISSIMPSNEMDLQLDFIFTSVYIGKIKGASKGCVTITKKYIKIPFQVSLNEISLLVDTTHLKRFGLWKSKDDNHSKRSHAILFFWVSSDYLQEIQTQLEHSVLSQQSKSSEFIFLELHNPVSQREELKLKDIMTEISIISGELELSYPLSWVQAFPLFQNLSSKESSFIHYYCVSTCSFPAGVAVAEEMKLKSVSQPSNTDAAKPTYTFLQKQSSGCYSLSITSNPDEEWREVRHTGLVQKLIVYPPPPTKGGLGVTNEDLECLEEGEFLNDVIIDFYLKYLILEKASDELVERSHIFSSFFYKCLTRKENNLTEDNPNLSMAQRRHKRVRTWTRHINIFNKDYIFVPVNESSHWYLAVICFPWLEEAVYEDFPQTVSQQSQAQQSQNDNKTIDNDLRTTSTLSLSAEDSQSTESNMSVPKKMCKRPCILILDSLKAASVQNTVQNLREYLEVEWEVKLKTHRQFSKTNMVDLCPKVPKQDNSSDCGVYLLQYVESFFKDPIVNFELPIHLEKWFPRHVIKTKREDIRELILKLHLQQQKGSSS

P388/ADR = assay: cells; format: functional; conditions: Mus musculus
P388 = assay: cells; format: functional; conditions: Mus musculus
SN12K1 = assay: cells; format: functional; conditions: Homo sapiens
[6] = target: T5, Histone-lysine N-methyltransferase NSD2 (Homo sapiens, UniProt O96028); format: biochemical
T5 sequence (O96028 whole entry): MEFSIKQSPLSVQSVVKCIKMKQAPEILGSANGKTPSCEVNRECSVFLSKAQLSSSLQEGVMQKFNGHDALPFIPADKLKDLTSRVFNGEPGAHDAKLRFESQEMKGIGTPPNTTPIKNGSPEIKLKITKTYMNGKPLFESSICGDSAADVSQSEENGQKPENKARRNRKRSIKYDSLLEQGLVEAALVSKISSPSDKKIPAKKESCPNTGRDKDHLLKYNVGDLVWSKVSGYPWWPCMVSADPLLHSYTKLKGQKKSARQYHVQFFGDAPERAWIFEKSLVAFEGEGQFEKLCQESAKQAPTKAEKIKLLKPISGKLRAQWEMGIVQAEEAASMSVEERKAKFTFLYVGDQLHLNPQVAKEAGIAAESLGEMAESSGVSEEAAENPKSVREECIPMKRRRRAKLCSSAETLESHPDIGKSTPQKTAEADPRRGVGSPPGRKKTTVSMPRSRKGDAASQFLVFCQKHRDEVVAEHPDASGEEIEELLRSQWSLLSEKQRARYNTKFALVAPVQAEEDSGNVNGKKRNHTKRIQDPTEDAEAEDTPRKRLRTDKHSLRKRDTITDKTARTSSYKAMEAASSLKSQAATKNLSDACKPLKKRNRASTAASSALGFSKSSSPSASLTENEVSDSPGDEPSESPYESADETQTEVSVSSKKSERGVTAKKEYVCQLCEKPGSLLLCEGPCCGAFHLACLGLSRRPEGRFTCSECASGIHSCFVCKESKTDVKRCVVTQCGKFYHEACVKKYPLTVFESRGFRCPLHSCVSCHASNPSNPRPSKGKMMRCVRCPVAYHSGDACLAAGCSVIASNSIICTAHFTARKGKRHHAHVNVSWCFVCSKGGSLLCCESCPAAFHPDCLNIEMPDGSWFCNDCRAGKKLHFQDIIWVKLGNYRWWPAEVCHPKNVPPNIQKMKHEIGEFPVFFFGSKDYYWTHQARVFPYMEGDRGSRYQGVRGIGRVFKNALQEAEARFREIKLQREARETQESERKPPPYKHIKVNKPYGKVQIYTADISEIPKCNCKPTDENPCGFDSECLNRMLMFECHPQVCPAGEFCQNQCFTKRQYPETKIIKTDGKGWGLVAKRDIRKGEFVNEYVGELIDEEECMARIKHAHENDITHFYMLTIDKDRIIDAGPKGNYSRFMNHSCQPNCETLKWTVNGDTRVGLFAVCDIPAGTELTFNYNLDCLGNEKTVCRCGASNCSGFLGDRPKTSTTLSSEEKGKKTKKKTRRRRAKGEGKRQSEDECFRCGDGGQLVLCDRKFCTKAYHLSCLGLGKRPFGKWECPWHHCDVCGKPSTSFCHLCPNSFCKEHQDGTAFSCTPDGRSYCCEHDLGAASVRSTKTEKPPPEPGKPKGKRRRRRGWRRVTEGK

Cytochrome P450 3A4 = Cytochrome P450 3A4 (Homo sapiens, UniProt P08684);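 further: CYP3A4 tested as one member of a cytochrome P450 panel screen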
Sequence of Cytochrome P450 3A4 (P08684 whole entry): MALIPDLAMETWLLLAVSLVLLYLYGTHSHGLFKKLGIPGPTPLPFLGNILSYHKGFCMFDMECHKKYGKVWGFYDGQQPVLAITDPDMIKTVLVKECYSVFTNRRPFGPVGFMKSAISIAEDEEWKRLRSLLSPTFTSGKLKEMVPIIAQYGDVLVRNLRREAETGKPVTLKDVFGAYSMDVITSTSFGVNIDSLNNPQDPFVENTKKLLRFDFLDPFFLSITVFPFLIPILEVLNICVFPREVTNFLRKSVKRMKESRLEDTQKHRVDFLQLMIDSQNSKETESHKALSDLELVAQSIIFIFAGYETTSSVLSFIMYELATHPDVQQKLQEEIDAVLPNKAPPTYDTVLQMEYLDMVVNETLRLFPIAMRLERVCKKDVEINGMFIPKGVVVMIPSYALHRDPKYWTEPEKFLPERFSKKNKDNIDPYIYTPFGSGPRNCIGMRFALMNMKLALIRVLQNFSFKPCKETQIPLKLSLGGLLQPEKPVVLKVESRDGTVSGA

CCCCN1C(=O)C(=O)N(CC(=O)N2N=C3/C(=C/c4ccco4)CCCC3C2c2ccco2)C1=O (configuration not stated)
EC50 [1]: > 120 µM (not active)
EC50 [2]: 14.8 µM (active)
EC50 (H4): 19.6 µM (active)

O=C(c1ccccc1)c1ccc(Cn2cc(-c3ccccc3)nn2)cc1
IC50 (Caspase-3): 32.3 µM (active)
IC50 [3]: 19.5 µM (active)
IC50 [4]: 23.9 µM (active)
IC50 [5]: 5.67 µM (active)

COc1ccc2cc(C(=O)NCCc3ccccc3)[nH]c2c1
EC50 [1]: 43.2 µM (active)
EC50 [2]: 48 µM (active)
EC50 (H4): 99.5 µM (active)

O=C(Nc1ccccc1[N+](=O)[O-])C1COc2ccccc2O1 (configuration not stated)
EC50 [1]: 0.244 µM (active)
EC50 [2]: > 120 µM (not active)
EC50 (H4): 6.61 µM (active)

Cc1ccccc1NS(=O)(=O)c1cccc(C(=O)Nc2cccc(C(=O)O)c2)c1
IC50 (Caspase-3): 66.7 µM (active)
IC50 [3]: 23.3 µM (active)
IC50 [4]: 23.7 µM (active)
IC50 [5]: 9.34 µM (active)

COC1=C(C)C(=O)C2=C(C1=O)C1C3CC4=C(C(=O)C(OC)=C(C)C4=O)C(CNC(=O)C(C)=O)N3C(C#N)C(C2)N1C (configuration not stated)
GI50 (P388/ADR): 0.0448 µM (active)
GI50 (P388): 0.01 µM (active)
GI50 (SN12K1): < 0.01 µM (active)
AC50 [6]: 8.92 µM (active)

CN(C)/N=N/c1ccc([N+](=O)[O-])cc1C(N)=O
GI50 (P388/ADR): > 100 µM (inactive)
GI50 (P388): > 100 µM (inactive)
GI50 (SN12K1): > 100 µM (inactive)

COc1cc(Cc2nccc3cc(OC)c(OC)cc23)c(C(C)=O)cc1OC
GI50 (P388/ADR): 14.5 µM (inactive)
GI50 (P388): 1.66 µM (inactive)
GI50 (SN12K1): 20.4 µM (inactive)

NC1=NCN(C2OC(CO)C(O)C2O)C(=O)N1 (configuration not stated)
GI50 (P388/ADR): 10.4 µM (inactive)
GI50 (P388): 8.57 µM (inactive)
GI50 (SN12K1): 13.9 µM (inactive)

CCCn1cc2c3c(cccc31)C1C=C(C)CN(C)C1C2 (configuration not stated)
GI50 (P388/ADR): 3.34 µM (inactive)
GI50 (P388): 5.69 µM (inactive)
GI50 (SN12K1): 14.2 µM (inactive)

COc1ccccc1C(=O)N/N=C(\C)c1ccc(NC(=O)Cc2ccccc2)cc1
EC50 [1]: > 120 µM (not active)
EC50 [2]: > 120 µM (not active)
EC50 (H4): > 120 µM (not active)

C=C1C(=O)O[C@@H]2[C@H]3O[C@]3(C)CCC=C(C)CC[C@@H]12
GI50 (P388/ADR): 4.84 µM (inactive)
GI50 (P388): 6.59 µM (inactive)
GI50 (SN12K1): 16.4 µM (inactive)
AC50 (Cytochrome P450 3A4): 10 µM (inconclusive)

CCC1(O)C(=O)OCc2c1cc1n(c2=O)Cc2cc3cc4c(cc3nc2-1)OCO4 (configuration not stated)
GI50 (P388/ADR): < 0.01 µM (active)
GI50 (P388): < 0.01 µM (active)
GI50 (SN12K1): < 0.01 µM (active)

C=C(C)C(O)CC/C(C)=C/Cc1c(O)ccc(C(=O)/C=C/c2ccc(O)cc2)c1O (configuration not stated) [XANTHOANGELOL B]
IC50 (Caspase-3): 28.1 µM (active)
IC50 [3]: 4.22 µM (active)
IC50 [4]: 5.08 µM (active)
IC50 [5]: 3.39 µM (active)
